≈ marks a conversion by molar mass, not a printed value.
Tests used:
Assay in all cases: microbe, parasite or virus in culture
Assay type in all cases: functional
Enterococcus faecalis = tested on: Enterococcus faecalis
Description: In vitro minimum inhibitory concentration against Enterococcus faecalis (MB 5407) was determined

Haemophilus influenzae = tested on: Haemophilus influenzae
Description: In vitro minimum inhibitory concentration against Haemophilus influenzae (MB 5363) was determined

[1] = tested on: Staphylococcus epidermidis
Description: In vitro minimum inhibitory concentration against Staphylococcus epidermidis (MB 5414) was determined

Staphylococcus aureus = tested on: Staphylococcus aureus
Description: In vitro minimum inhibitory concentration against Staphylococcus aureus (MB 2865) was determined

Streptococcus pneumoniae = tested on: Streptococcus pneumoniae
Description: In vitro minimum inhibitory concentration against Streptococcus pneumoniae (CL 2883) was determined

Streptococcus pyogenes = tested on: Streptococcus pyogenes
Description: In vitro minimum inhibitory concentration against Streptococcus pyogenes (MB 2874) was determined

Row | SMILES | MIC (Enterococcus faecalis) [µg/mL] | MIC (Haemophilus influenzae) [µg/mL] | MIC [1] [µg/mL] | MIC (Staphylococcus aureus) [µg/mL] | MIC (Streptococcus pneumoniae) [µg/mL] | MIC (Streptococcus pyogenes) [µg/mL]
1 | CC[C@H]1OC(=O)[C@H](C)[C@@H](O[C@H]2C[C@@](C)(OC)[C@@H](O)[C@H](C)O2)[C@H](C)[C@@H](O[C@@H]2O[C@H](C)C[C@H](N(C)C)[C@H]2O)[C@](C)(O)C[C@@H](C)[C@@H](n2cccc2)[C@H](C)[C@@H](O)[C@]1(C)O | 32 (≈ 40.8 µM) | > 128 | 64 (≈ 81.5 µM) | 128 (≈ 163 µM) | 2 (≈ 2.55 µM) | 
2 | CC[C@H]1OC(=O)[C@H](C)[C@@H](O[C@H]2C[C@@](C)(OC)[C@@H](O)[C@H](C)O2)[C@H](C)[C@@H](O[C@@H]2O[C@H](C)C[C@H](N(C)C)[C@H]2O)[C@](C)(O)C[C@@H](C)[C@H](n2ccc(C=O)c2)[C@H](C)[C@@H](O)[C@]1(C)O | 64 (≈ 78.7 µM) | 64 (≈ 78.7 µM) | 32 (≈ 39.4 µM) | 32 (≈ 39.4 µM) | 64 (≈ 78.7 µM) | 32 (≈ 39.4 µM)
3 | CC[C@H]1OC(=O)[C@H](C)[C@@H](O[C@H]2C[C@@](C)(OC)[C@@H](O)[C@H](C)O2)[C@H](C)[C@@H](O[C@@H]2O[C@H](C)C[C@H](N(C)C)[C@H]2O)[C@](C)(O)C[C@@H](C)[C@@H](n2ccc(O)c2C(=O)OC(C)(C)C)[C@H](C)[C@@H](O)[C@]1(C)O | 64 (≈ 71 µM) | > 128 | 64 (≈ 71 µM) | 64 (≈ 71 µM) | 16 (≈ 17.8 µM) | 8 (≈ 8.88 µM)
4 | CC[C@H]1OC(=O)[C@H](C)[C@@H](O[C@H]2C[C@@](C)(OC)[C@@H](O)[C@H](C)O2)[C@H](C)[C@@H](O[C@@H]2O[C@H](C)C[C@H](N(C)C)[C@H]2O)[C@](C)(O)C[C@@H](C)[C@H](n2cccc2)[C@H](C)[C@@H](O)[C@]1(C)O | 64 (≈ 81.5 µM) | 128 (≈ 163 µM) | 32 (≈ 40.8 µM) | 64 (≈ 81.5 µM) | 4 (≈ 5.1 µM) | 4 (≈ 5.1 µM)
5 | CC[C@H]1OC(=O)[C@H](C)[C@@H](O[C@H]2C[C@@](C)(OC)[C@@H](O)[C@H](C)O2)[C@H](C)[C@@H](O[C@@H]2O[C@H](C)C[C@H](N(C)C)[C@H]2O)[C@](C)(O)C[C@@H](C)[C@@H](n2ccc(C=O)c2)[C@H](C)[C@@H](O)[C@]1(C)O | 16 (≈ 19.7 µM) | 128 (≈ 157 µM) | 8 (≈ 9.84 µM) | 32 (≈ 39.4 µM) | 1 (≈ 1.23 µM) | 
6 | CC[C@H]1OC(=O)[C@H](C)[C@@H](O[C@H]2C[C@@](C)(OC)[C@@H](O)[C@H](C)O2)[C@H](C)[C@@H](O[C@@H]2O[C@H](C)C[C@H](N(C)C)[C@H]2O)[C@](C)(O)C[C@@H](C)[C@H](n2ccc(O)c2C(=O)OC(C)(C)C)[C@H](C)[C@@H](O)[C@]1(C)O | 16 (≈ 17.8 µM) | 32 (≈ 35.5 µM) | 4 (≈ 4.44 µM) | 8 (≈ 8.88 µM) | 0.5 (≈ 0.555 µM) | 0.25 (≈ 0.277 µM)

From ChEMBL document CHEMBL1126376, “Synthesis and activities of 9-pyrrolo-9-deoxoerythromycin a analogs” (1992)
